Assay results taken from patent US20250120967A1, “TYROSINE KINASES INHIBITORS AND USES THEREOF” (GREAT NOVEL THERAPEUTICS BIOTECH & MEDICALS CORPORATION, priority 2023, published 2025).

Columns and labels:
Test in all cases: Tyrosine kinase inhibition assay
Type in all cases: biochemical
Conditions in all cases: single concentration 1.0 μM, read-out: percent inhibition
BRAF = BRAF (Homo sapiens, UniProt P15056)
How it was run: (§1)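 Peptide/kinase mixtures and ATP (apparent Km) are combined in 50 mM HEPES pH 7.5 kinase buffer with 10 mM MgCl2, 1 mM EGTA and 0.01% BRIJ-35, compound at 1.0 μM in 1% DMSO. Development reagent is then added and percent inhibition calculated.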

EPHA4 = EPHA4 (Homo sapiens, UniProt P54764)
EPHA4, sequence (P54764 20-986): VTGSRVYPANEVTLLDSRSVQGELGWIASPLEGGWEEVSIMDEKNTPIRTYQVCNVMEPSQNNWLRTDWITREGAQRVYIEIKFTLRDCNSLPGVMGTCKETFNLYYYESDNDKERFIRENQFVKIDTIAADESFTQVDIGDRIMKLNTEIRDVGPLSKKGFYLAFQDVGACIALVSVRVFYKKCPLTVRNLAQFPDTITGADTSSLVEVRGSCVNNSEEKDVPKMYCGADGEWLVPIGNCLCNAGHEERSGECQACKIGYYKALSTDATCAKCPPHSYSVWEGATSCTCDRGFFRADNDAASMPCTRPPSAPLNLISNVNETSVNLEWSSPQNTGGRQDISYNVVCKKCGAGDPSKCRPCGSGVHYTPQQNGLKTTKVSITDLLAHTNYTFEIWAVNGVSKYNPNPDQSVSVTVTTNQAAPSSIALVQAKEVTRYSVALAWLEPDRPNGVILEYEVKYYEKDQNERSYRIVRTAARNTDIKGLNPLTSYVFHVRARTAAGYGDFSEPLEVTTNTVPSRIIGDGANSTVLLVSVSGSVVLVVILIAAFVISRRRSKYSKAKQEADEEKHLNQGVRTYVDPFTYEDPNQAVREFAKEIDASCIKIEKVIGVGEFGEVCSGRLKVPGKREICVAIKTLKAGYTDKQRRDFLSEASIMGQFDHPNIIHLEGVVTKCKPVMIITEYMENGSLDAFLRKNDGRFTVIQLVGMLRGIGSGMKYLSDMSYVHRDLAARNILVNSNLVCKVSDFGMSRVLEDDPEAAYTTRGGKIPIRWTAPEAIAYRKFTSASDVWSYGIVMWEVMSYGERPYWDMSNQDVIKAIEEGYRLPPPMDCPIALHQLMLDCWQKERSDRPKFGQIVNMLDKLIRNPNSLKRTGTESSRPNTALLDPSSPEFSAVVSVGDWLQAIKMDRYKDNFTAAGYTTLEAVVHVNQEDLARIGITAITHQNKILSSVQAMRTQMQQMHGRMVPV
How it was run: as §1

MAP4K3 (GLK) = biological target: T1, MAP4K3 (GLK) (Homo sapiens, UniProt Q8IVH8)
T1 sequence (Q8IVH8 1-894): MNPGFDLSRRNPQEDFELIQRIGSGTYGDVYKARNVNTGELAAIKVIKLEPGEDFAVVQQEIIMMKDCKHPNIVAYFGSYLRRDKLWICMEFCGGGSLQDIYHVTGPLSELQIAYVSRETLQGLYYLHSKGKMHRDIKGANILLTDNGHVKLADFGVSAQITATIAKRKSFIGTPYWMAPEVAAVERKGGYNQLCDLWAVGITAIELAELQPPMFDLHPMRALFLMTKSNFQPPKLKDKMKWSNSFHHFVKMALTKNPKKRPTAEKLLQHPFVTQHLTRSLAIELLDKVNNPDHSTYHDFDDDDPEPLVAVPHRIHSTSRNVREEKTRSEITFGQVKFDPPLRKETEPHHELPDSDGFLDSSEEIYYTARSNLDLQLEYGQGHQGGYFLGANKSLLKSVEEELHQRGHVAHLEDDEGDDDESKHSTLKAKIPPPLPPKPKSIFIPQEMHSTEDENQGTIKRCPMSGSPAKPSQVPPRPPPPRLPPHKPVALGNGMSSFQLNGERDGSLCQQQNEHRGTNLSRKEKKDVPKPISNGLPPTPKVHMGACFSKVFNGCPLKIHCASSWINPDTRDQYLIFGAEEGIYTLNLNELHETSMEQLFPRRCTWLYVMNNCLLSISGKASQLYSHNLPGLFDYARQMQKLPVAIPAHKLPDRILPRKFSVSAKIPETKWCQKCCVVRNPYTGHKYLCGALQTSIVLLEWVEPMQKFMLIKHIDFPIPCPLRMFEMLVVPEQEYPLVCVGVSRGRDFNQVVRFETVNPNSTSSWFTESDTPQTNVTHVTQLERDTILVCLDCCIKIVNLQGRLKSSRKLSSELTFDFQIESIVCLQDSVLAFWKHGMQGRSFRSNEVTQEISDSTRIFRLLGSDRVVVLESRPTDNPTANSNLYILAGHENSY
How it was run: as §1

TNK1 = biological target: T2, TNK1 (Homo sapiens, UniProt Q13470)
T2 sequence (Q13470 1-666): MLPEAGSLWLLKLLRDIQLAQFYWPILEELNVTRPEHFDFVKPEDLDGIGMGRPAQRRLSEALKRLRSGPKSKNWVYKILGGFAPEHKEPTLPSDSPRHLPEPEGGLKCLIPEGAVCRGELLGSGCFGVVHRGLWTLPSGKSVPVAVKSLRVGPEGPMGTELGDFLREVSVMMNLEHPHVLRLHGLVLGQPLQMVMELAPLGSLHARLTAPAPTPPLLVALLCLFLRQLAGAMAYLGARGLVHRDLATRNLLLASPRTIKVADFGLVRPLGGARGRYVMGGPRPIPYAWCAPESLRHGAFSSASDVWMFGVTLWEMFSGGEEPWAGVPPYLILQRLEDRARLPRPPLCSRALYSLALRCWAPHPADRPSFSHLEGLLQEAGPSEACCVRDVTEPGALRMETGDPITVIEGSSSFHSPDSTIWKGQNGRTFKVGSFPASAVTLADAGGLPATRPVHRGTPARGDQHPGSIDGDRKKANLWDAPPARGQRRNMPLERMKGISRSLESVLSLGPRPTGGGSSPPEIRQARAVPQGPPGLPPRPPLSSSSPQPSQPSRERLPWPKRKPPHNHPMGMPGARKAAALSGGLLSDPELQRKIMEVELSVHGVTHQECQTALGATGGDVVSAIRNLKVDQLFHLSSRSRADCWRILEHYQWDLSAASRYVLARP
How it was run: as §1

ZAP70 = biological target: T3, ZAP70 (Homo sapiens, UniProt P43403)
T3 sequence (P43403 1-619): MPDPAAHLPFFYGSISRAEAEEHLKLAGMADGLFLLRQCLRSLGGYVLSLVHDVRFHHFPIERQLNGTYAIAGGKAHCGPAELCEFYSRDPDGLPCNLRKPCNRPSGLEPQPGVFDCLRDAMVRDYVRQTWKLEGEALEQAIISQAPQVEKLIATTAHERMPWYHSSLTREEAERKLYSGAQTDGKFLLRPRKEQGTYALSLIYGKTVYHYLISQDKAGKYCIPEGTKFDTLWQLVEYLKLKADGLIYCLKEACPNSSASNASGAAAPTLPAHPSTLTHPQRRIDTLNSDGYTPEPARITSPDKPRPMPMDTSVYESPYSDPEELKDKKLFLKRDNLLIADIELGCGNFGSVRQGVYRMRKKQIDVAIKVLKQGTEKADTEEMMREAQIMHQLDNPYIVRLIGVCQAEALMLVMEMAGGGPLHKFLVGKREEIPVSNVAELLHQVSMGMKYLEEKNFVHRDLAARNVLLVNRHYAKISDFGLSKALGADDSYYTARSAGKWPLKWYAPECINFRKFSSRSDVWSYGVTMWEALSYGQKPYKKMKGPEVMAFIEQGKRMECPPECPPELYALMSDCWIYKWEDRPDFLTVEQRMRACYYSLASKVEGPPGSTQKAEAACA
How it was run: as §1

BRAF, sequence (P15056 whole entry): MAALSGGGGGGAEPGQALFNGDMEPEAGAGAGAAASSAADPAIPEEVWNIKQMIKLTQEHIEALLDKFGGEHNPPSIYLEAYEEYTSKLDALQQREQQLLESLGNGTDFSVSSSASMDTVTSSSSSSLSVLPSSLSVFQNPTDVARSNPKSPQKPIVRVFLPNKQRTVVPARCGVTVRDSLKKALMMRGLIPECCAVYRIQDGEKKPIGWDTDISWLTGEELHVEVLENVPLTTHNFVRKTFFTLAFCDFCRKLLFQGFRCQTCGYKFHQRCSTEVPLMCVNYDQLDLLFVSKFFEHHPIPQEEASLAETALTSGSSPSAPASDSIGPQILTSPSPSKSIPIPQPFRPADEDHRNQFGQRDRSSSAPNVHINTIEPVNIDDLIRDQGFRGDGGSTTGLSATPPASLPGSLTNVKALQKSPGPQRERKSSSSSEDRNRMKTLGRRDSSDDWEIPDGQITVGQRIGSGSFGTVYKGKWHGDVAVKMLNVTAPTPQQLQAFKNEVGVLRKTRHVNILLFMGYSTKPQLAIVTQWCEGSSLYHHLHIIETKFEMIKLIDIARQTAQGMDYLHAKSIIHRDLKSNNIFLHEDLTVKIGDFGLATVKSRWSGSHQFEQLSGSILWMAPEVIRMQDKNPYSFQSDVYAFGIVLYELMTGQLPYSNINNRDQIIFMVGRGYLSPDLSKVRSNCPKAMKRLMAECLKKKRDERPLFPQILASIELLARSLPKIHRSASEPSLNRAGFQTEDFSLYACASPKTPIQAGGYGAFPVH

SMILES | inhibition at 1 µM (BRAF) [%] | inhibition at 1 µM (EPHA4) [%] | inhibition at 1 µM (MAP4K3 (GLK)) [%] | inhibition at 1 µM (TNK1) [%] | inhibition at 1 µM (ZAP70) [%]
COc1cc2nccc(Oc3ccc(NC(=O)C4(C(=O)Nc5ccc(F)cc5)CC4)cc3)c2cc1OC [Cabozantinib, reference compound] | 13 | 100 | 48 | 74 | 13
COc1cc2nccc(Oc3ccc(NC(=O)C4(NC(=O)c5ccc(F)cc5)CC4)cc3F)c2cc1OC [Cbo-02, N-(1-((4-((6,7-diMethoxyquinolin-4-yl)oxy)-3-fluorophenyl)carbamoyl)cyclopropyl)-4-fluorobenzamide] | 4 | 79 | 43 | 17 | 14
COc1cc2nccc(Oc3ccc(NC(=O)C4(NC(=O)c5ccc(F)cc5)CC4)cc3F)c2cc1Oc1ccc(N)cc1F [Cbo-10] | 4 | 91 | 59 | 39 | 6
COc1cc2nccc(Oc3ccc(NC(=O)C4(NC(=O)c5ccc(F)cc5)CC4)cc3F)c2cc1Oc1c(F)cc(N)cc1F [Cbo-14] | 1 | 89 | 58 | 64 | 9
COc1cc2nccc(Oc3ccc(NC(=O)C4(C(=O)Nc5ccc(F)cc5)CC4)cc3F)c2cc1Oc1ccc(N)cc1F [Cbo-23] | 3 | 100 | 41 | 92 | 5
